Earlier results on 1 compound are cited in patent US6356845B1, “Crystallization and structure determination of Staphylococcus aureus UDP-N-acetylenolpyruvylglucosamine reductase (S. aureus MurB)” (priority 1999, dated 2002).

In the series the target is T1, S. aureus MurB (Staphylococcus aureus, UniProt P61431).
T1 construct: His6; made in house; host or cells: E. coli K12S (F' lacIq), plasmid pQE-10 murB obtained from Human Genome Sciences
The following applies: read-out: Km for EP-UDPGlcNAc with S. aureus MurB; substrate Km; S. Swaney, personal communication.

By Km is commonly meant the concentration of substrate that gives half-maximal velocity. Consider `C=C(O[C@H]1[C@H](O)[C@@H](CO)O[C@H](OP(=O)(O)OP(=O)(O)OC[C@H]2O[C@@H](n3ccc(=O)[nH]c3=O)[C@H](O)[C@@H]2O)[C@@H]1NC(C)=O)C(=O)O` [EP-UDPGlcNAc, Uridine diphospho-N-acetylglucosamine enolpyruvate], for which the Michaelis constant (Km) is 15 µM.
